Results on two compounds are retold here after patent publication EP0186181A2, “Uses for enprostil” (SYNTEX (U.S.A.) INC., priority 1984, dated 1986).

Like-named read-outs stand apart in the source and are kept apart here.

The subject of test [1] is serum glucose. Nature of the test: 25 g intravenous glucose tolerance test (Example VII). The class given is in vivo, human. Conditions: 30 minutes following enprostil administration, day 2 and day 10. Here is the method: (§1) 10 normal subjects participated in a 10-day placebo controlled cross-over receiving either placebo or […] enprostil per day. On day 1 and day 9 of each study phase they orally received 5 g of d-xylose, a sugar not normally metabolized in man. Blood measurements for serum xylose were made at -30, 0, +30, 60, 120, 180, 240, and 300 minutes following ingestion of xylose. On day 2 and day 10 of each study phase, the subjects received a 25 g intravenous glucose tolerance test, 30 minutes following enprostil administration.

Test [2] relates to serum insulin and glucose. Nature of the test: Serum insulin and glucose after meal, double blind crossover study (Example V). The class given is in vivo, human. Conditions: orally 30 minutes before meal. The procedure: A group of 10 subjects participated in a double blind crossover study. Either a placebo or enprostil was orally given 30 minutes before meal time and levels of insulin and glucose were measured after the meal.

For test [3], the system named is serum cholesterol. Nature of the test: Effect of orally administered enprostil on serum cholesterol, five weeks (Example I). It is filed as in vivo, human. Here is the method:
A group of 20 patients with high cholesterol baseline were orally given 70 µg enprostil twice daily. […] The median change for the group was 16 percent reduction, with 60 percent of the patients tested showing a significant reduction in serum cholesterol.
A second group of 16 patients with a high cholesterol baseline were given 35 µg enprostil twice daily.
A third group of 13 individuals were given a placebo. […] The median change was a 2 percent increase in cholesterol.

Another test concerns serum GIP. Nature of the test: Serum GIP after meal stimulus, double blind crossover study (Example IV). It is filed as in vivo, human. To be noted: 70 µg orally 30 minutes before meal; placebo showed a four fold increase. The procedure:
Serum GIP levels are known to increase after meals.
Groups of 10 subjects participated in a double blind, crossover study. Either the placebo or 70 µg enprostil was orally given 30 minutes before meal time and levels of GIP were measured.

In test [4] the test system is serum cholesterol. Nature of the test: 44 day dosing placebo controlled trial, serum cholesterol (Example III). It is filed as in vivo, human. The procedure:
In a 44 day dosing study 20 subject participated in a placebo controlled trial. Ten subjects received enprostil and the remainder received placebo. […] Similarly there was a 46% reduction in their LDL cholesterol from 140 mg/dl to 75 mg/dl. This subject was normocholesterolemic at baseline and no dietary manipulation was attempted.

Test [5] relates to serum insulin and glucose. Kind of test: Eight-day crossover study with standard breakfast: serum glucose, insulin, GIP (Example VI). The class given is in vivo, human. Conditions: 70 µg orally. Here is the method: Eight healthy male subject received either 70 µg enprostil per day or placebo for eight days followed by a washout period of one week and a subsequent second eight-day administration during which they received the opposite drug regime.
On day 1 and day 8 of each study period the patients reported to the clinical studies unit fasting and were administered 70 µg of enprostil orally in a glass of water. Thirty minutes later they were administered a standard breakfast and blood samples were drawn at -30, just prior to enprostil administration, 0, at the time of enprostil administration, 15, 30, 60, 90, 120 and 180 minutes.

Test [6] has as its system serum cholesterol. Kind of test: Cholesterol reduction study, 7 to 70 µg BID versus placebo (Example II, Table 1). It is filed as in vivo, human.
The test system of test [7] is serum cholesterol, LDL cholesterol, HDL cholesterol, apoproteins. Kind of test: 9-day placebo controlled cross-over study in normal subjects: cholesterol, LDL, HDL, apoproteins (Table 2). The class given is in vivo, human. Also on record: Mean reduction of cholesterol / Mean reduction of LDL cholesterol / Mean reduction of HDL cholesterol / Mean reduction of apoprotein A / Mean reduction of apoprotein B: concentration or dose not given beside the values. To be noted: 9-day cross-over. The procedure: To further clarify the nature of these changes in a prospective manner, normal subjects were dosed with enprostil for periods ranging from 8 days up to 44 days in duration.
In a 9-day placebo controlled cross-over study, with each subject serving as their own control, the mean reduction in cholesterol, Low Density Lipoprotein (LDL) cholesterol, and High Density Lipoprotein (HDL) cholesterol are shown in Table 2.
These findings are surprising since the subjects in this study were normocholesterolemic at baseline (that is serum cholesterol under 250 mg/dl) and were on a free diet with no attempt to regulate dietary cholesterol intake.

In test [8] the test system is serum glucose. Kind of test: Serum glucose after standard breakfast, study lasting up to 44 days (Example VIII). The class given is in vivo, human. Conditions: 35 µg BID, standard breakfast 30 minutes after dose. The procedure:
20 subjects participated in a study lasting up to 44 days. On day -8, all 20 subjects received a placebo capsule followed 30 minutes later by a standard breakfast with serial blood measurements. Eight days later all 20 subjects were randomized to either enprostil […] BID or placebo and continued dosing for a period of 30 days. On days 1, 8, and 30, they were given enprostil followed 30 minutes later by a standard breakfast with serial blood measurements.

Another test deals with serum xylose. Kind of test: Oral d-xylose absorption, 10-day placebo controlled cross-over (Example VII). It is filed as in vivo, human. Conditions: 70 µg enprostil per day, 5 g d-xylose orally. The procedure:
as §1

A further test deals with insulin levels. Conditions: cited from earlier work.
[9] abbreviates: 35 µg twice daily, of 16 patients.
[10] abbreviates: 70 µg twice daily, of 20 patients.
Setting [11] is: of nine subjects who received enprostil.
Setting [12] is: subject number 120, from 140 mg/dl.
[13] abbreviates: normocholesterolemic subjects, free diet.
The mark [14] stands for this setting: administered by tube to the duodenum.

On to `COC(=O)CCC=C=CC[C@H]1C(=O)C[C@@H](O)[C@@H]1/C=C/[C@@H](O)COc1ccccc1` [enprostil], for which the “serum glucose by time curves following intravenous glucose administration, versus placebo” value in the test on serum glucose [1] was “no marked differences”. Further, the “raise in glucose levels after the meal” value in test [2] was “no statistically or clinically significant raise”. The “increase of insulin levels after the meal” value in test [2] (placebo five fold) is recorded as “two”. Moreover, the “patients showing serum cholesterol reduction” value in the test with serum cholesterol [3] (35 µg twice daily, 16 patients) is 56%. Further, in the test on serum cholesterol [3] (35 µg twice daily, 16 patients with high cholesterol baseline), the “median change (reduction in serum cholesterol)” value is recorded as “eleven”. Further, in the test on serum cholesterol [3] (setting [9]), the “number of patients showing greater than 10 percent serum cholesterol reduction” value was “eight”, the “number of patients showing greater than 25 percent reduction in serum cholesterol” value is “one” and the “number of patients showing no change in serum cholesterol” value is listed as “seven”. Further, in the test on serum cholesterol [3] (70 µg twice daily orally, 20 patients), the “patients tested showing a significant reduction in serum cholesterol” value stood at 60%. In the test on serum cholesterol [3] (70 µg twice daily orally, 20 patients with high cholesterol baseline), the “median change for the group (reduction in serum cholesterol)” value turned out to be 16%. In the test on serum cholesterol [3] (setting [10]), the “number of patients showing greater than 10 percent reduction in serum cholesterol” value is given as “eleven”, the “number of patients showing greater than 25 percent reduction in serum cholesterol” value is recorded as “one” and the “number of patients showing no change in serum cholesterol” value is recorded as “eight”. Further, the “increase in serum GIP 60 minutes after the meal stimulus” value in the test with serum GIP is “no increase”. Also, in the test on serum cholesterol [4] (setting [11]), the “number of individuals with a reduction in total and LDL cholesterol throughout the entire 44 day period” value is given as “Three”; the “number of subjects showing a reduction of total cholesterol by 16 days” value is reported as “Six”. Further, in the test with serum cholesterol [4] (subject number 120, day 44 versus mean baseline of 208 mg/dl), the “reduction of total serum cholesterol” value is on record as 43%. For the same compound, in the test with serum cholesterol [4] (setting [12]), the “LDL cholesterol after dosing” value was determined as 75 mg/dL and the “reduction in LDL cholesterol” value was found to be 46%. Moreover, the “total serum cholesterol at day 44” value in the test with serum cholesterol [4] (subject number 120, mean baseline 208 mg/dl) is 123 mg/dL. For the same compound, the “serum GIP” value in test [5] (both study days) is listed as “essentially complete inhibition”. Also, the “serum insulin concentrations for each time point” value in test [5] (day 1 and 8) is “marked reduction”. Further, the “reduction of area under the serum glucose by time curve compared to the placebo phase” value in test [5] (day 1 and day 8) is reported as 15-20%. In addition, in the test on serum cholesterol [6] (7 µg BID, 9 subjects), the “Cholesterol % decrease (combined 2-12 week of dosing)” value (“Cholesterol % decrease” below) worked out at 67% and the “Median % change (cholesterol)” value is on record as -11%. Moreover, in the test on serum cholesterol [6] (35 µg BID, 28 subjects), the “Cholesterol % decrease” value was 64% and the “Median % change (cholesterol)” value is reported as -13%. Besides, in the test with serum cholesterol [6] (70 µg BID, 28 subjects), the “Cholesterol % decrease” value is given as 64% and the “Median % change (cholesterol)” value is reported as -17%. In test [7], the “change in total triglycerides” value is listed as “essentially no change”. In test [7] (setting [13]), the “Mean reduction of HDL cholesterol” value is given as -9.2%, the “Mean reduction of LDL cholesterol” value is reported as -21.0%, the “Mean reduction of apoprotein A” value is on record as -1.8% and the “Mean reduction of apoprotein B” value is on record as -16.0%. The “Mean reduction of cholesterol” value in [7] (setting [13]) is recorded as -15.0%. Also, the “peak blood glucose levels versus placebo” value with serum glucose [8] is given as “substantially reduced”. For the same compound, in the test on serum glucose [8] (delay from approximately 60 minutes), the “time of appearance of peak blood glucose levels” value is around 90 min. Besides, the “reduction in the amount of xylose excreted over 5 hours” value with serum xylose was 30%. The “peak serum xylose levels” value in the test on serum xylose (days 1 and 9) was “marked suppression and delay”. In addition, in the test with serum xylose (versus 1.8g), the “amount of xylose excreted over 5 hours” value is 1.3 g.

`CCCCC[C@](C)(O)/C=C/[C@H]1[C@H](O)CC(=O)[C@@H]1C/C=C\CCCC(=O)OC` [15S, 15 methyl PGE2 methyl ester]: in the test with insulin levels (setting [14]), the insulin levels entry is recorded as “lowered insulin levels” and the serum glucose levels result is reported as “no change”. The “time to peak serum glucose levels” value in the test on insulin levels (intraduodenally or intravenously) is given as “no change”. Moreover, in the test with insulin levels (intravenous administration), the glucose levels result was “without affecting glucose levels” and the insulin levels entry is on record as “lowered insulin levels”.
